Reference: the supplement of paper PMC9663587

What was measured:
LEE011/Ribociclib [1] = compound: T1, CN(C)C(=O)c1cc2cnc(Nc3ccc(N4CCNCC4)cn3)nc2n1C1CCCC1 [LEE011/Ribociclib]; assay: increase in dead-cell fraction, 72 h; higher = more death;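 note: breast cancer cell lines in 384-well plates, stained with Hoechst plus LIVE/DEAD far red dye and imaged, cells above an LDR intensity threshold counted dead, Hoechst-negative corpses included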
Flavopiridol = compound: CN1CC[C@H](c2c(O)cc(O)c3c(=O)cc(-c4ccccc4Cl)oc23)[C@H](O)C1 [Flavopiridol]; assay: as above
YKL-5-124 = compound: C=CC(=O)Nc1ccc(C(=O)Nc2[nH]nc3c2CN(C(=O)N[C@H](CN(C)C)c2ccccc2)C3(C)C)cc1 [YKL-5-124]; assay: as above
BSJ-03-123 = compound: CC(=O)c1c(C)c2cnc(Nc3ccc(N4CCN(CCOCCOCCOCCNC(=O)COc5cccc6c5C(=O)N(C5CCC(=O)NC5=O)C6=O)CC4)cn3)nc2n(C2CCCC2)c1=O [BSJ-03-123]; assay: as above
THZ531 = compound: CN(C)C/C=C/C(=O)Nc1ccc(C(=O)N2CCC[C@@H](Nc3ncc(Cl)c(-c4c[nH]c5ccccc45)n3)C2)cc1 [THZ531]; assay: as above
[2] = compound: CCc1cnn2c(NCc3ccc[n+]([O-])c3)cc(N3CCCC[C@H]3CCO)nc12; assay: as above
[3] = compound: CCN1CCN(Cc2ccc(Nc3ncc(F)c(-c4cc(F)c5nc(C)n(C(C)C)c5c4)n3)nc2)CC1; assay: as above
[4] = compound: CC(=O)c1c(C)c2cnc(Nc3ccc(N4CCNCC4)cn3)nc2n(C2CCCC2)c1=O; assay: as above
THZ1 = compound: CN(C)C/C=C/C(=O)Nc1ccc(C(=O)Nc2cccc(Nc3ncc(Cl)c(-c4c[nH]c5ccccc45)n3)c2)cc1 [THZ1]; assay: as above
Neratinib/HKI272 = compound: CCOc1cc2ncc(C#N)c(Nc3ccc(OCc4ccccn4)c(Cl)c3)c2cc1NC(=O)/C=C/CN(C)C [Neratinib/HKI272]; assay: as above
LEE011/Ribociclib [5] = compound: T1, LEE011/Ribociclib
Doxorubicin = compound: COc1cccc2c1C(=O)c1c(O)c3c(c(O)c1C2=O)C[C@@](O)(C(=O)CO)C[C@@H]3O[C@H]1C[C@H](N)[C@H](O)[C@H](C)O1 [Doxorubicin]
Ceritinib/LDK378 = compound: Cc1cc(Nc2ncc(Cl)c(Nc3ccccc3S(=O)(=O)C(C)C)n2)c(OC(C)C)cc1C1CCNCC1 [Ceritinib/LDK378]
[6] = compound: Cc1nn(C)c(COc2ccc(N3CCN(S(=O)(=O)N(C)C)CC3)cc2)c1-c1cccc2c(CCCOc3cccc4ccccc34)c(C(=O)O)n(CCN3CCOCC3)c12
[7] = compound: CCc1cnn2c(NCc3ccc[n+]([O-])c3)cc(N3CCCC[C@H]3CCO)nc12
Pictilisib/GDC0941 = compound: CS(=O)(=O)N1CCN(Cc2cc3nc(-c4cccc5[nH]ncc45)nc(N4CCOCC4)c3s2)CC1 [Pictilisib/GDC0941]
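Throughout, for GR50, 72 h: breast cancer and non-malignant breast epithelial cell lines, Deep Dye Drop or Dye Drop imaging, nine half-log doses, GR normalized to time-zero plates and DMSO-only controls.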

In the case of CAL851, the “increase in dead-cell fraction” value (LEE011/Ribociclib [1]; 0.001 µM) is reported as -0.003, the “increase in dead-cell fraction” value (LEE011/Ribociclib [1]; 0.003162 µM) is reported as 0.001 and the “increase in dead-cell fraction” value (LEE011/Ribociclib [1]; 0.01 µM) is reported as 0.0024. The “increase in dead-cell fraction” value (LEE011/Ribociclib [1]; 0.03162 µM) was 0, the “increase in dead-cell fraction” value (LEE011/Ribociclib [1]; 0.1 µM) was -0.0008 and the “increase in dead-cell fraction” value (LEE011/Ribociclib [1]; 0.3162 µM) was -0.0059. The “increase in dead-cell fraction” value (LEE011/Ribociclib [1]; 1 µM) was 0.0038, the “increase in dead-cell fraction” value (LEE011/Ribociclib [1]; 3.162 µM) was 0.0003 and the “increase in dead-cell fraction” value (LEE011/Ribociclib [1]; 10 µM) was -0.0071. For the same cell line, the “increase in dead-cell fraction” value (Flavopiridol; 0.0001 µM) was -0.0044, the “increase in dead-cell fraction” value (Flavopiridol; 0.0003162 µM) was 0.0036 and the “increase in dead-cell fraction” value (Flavopiridol; 0.001 µM) was 0.0039. The “increase in dead-cell fraction” value (Flavopiridol; 0.003162 µM) was -0.0035, the “increase in dead-cell fraction” value (Flavopiridol; 0.01 µM) was 0.0021 and the “increase in dead-cell fraction” value (Flavopiridol; 0.03162 µM) was 0.001. The “increase in dead-cell fraction” value (Flavopiridol; 0.1 µM) was 0.0068, the “increase in dead-cell fraction” value (Flavopiridol; 0.3162 µM) was 0.0514 and the “increase in dead-cell fraction” value (Flavopiridol; 1 µM) was 0.103. For the same cell line, the “increase in dead-cell fraction” value (YKL-5-124; 0.001 µM) was 0.0613, the “increase in dead-cell fraction” value (YKL-5-124; 0.003162 µM) was 0.0965 and the “increase in dead-cell fraction” value (YKL-5-124; 0.01 µM) was 0.0961. The “increase in dead-cell fraction” value (YKL-5-124; 0.03162 µM) was 0.1, the “increase in dead-cell fraction” value (YKL-5-124; 0.1 µM) was 0.12 and the “increase in dead-cell fraction” value (YKL-5-124; 0.3162 µM) was 0.15. The “increase in dead-cell fraction” value (YKL-5-124; 1 µM) was 0.096, the “increase in dead-cell fraction” value (YKL-5-124; 3.162 µM) was 0.12 and the “increase in dead-cell fraction” value (YKL-5-124; 10 µM) was 0.402. For the same cell line, the “increase in dead-cell fraction” value (BSJ-03-123; 0.001 µM) was -0.0043, the “increase in dead-cell fraction” value (BSJ-03-123; 0.003162 µM) was -0.0029 and the “increase in dead-cell fraction” value (BSJ-03-123; 0.01 µM) was -0.0014. For the same cell line, the “increase in dead-cell fraction” value (BSJ-03-123; 0.03162 µM) was 0.0058, the “increase in dead-cell fraction” value (BSJ-03-123; 0.1 µM) was 0.007 and the “increase in dead-cell fraction” value (BSJ-03-123; 0.3162 µM) was 0.0046. For the same cell line, the “increase in dead-cell fraction” value (BSJ-03-123; 1 µM) was 0.0134, the “increase in dead-cell fraction” value (BSJ-03-123; 3.162 µM) was 0.0379 and the “increase in dead-cell fraction” value (BSJ-03-123; 10 µM) was 0.0921. The “increase in dead-cell fraction” value (THZ531; 0.0001 µM) was 0.0002, the “increase in dead-cell fraction” value (THZ531; 0.0003162 µM) was 0.0044 and the “increase in dead-cell fraction” value (THZ531; 0.001 µM) was -0.0008. The “increase in dead-cell fraction” value (THZ531; 0.003162 µM) was 0.0011, the “increase in dead-cell fraction” value (THZ531; 0.01 µM) was 0.0061 and the “increase in dead-cell fraction” value (THZ531; 0.03162 µM) was 0.0125. For the same cell line, the “increase in dead-cell fraction” value (THZ531; 0.1 µM) was 0.0297, the “increase in dead-cell fraction” value (THZ531; 0.3162 µM) was 0.048 and the “increase in dead-cell fraction” value (THZ531; 1 µM) was 0.0747. The “increase in dead-cell fraction” value ([2]; 0.0001 µM) was -0.007, the “increase in dead-cell fraction” value ([2]; 0.0003162 µM) was -0.005 and the “increase in dead-cell fraction” value ([2]; 0.001 µM) was 0.003. The “increase in dead-cell fraction” value ([2]; 0.003162 µM) was 0.0409, the “increase in dead-cell fraction” value ([2]; 0.01 µM) was 0.2 and the “increase in dead-cell fraction” value ([2]; 0.03162 µM) was 0.147. The “increase in dead-cell fraction” value ([2]; 0.1 µM) was 0.205, the “increase in dead-cell fraction” value ([2]; 0.3162 µM) was 0.22 and the “increase in dead-cell fraction” value ([2]; 1 µM) was 0.217. The “increase in dead-cell fraction” value ([3]; 0.001 µM) was -0.0049, the “increase in dead-cell fraction” value ([3]; 0.003162 µM) was -0.0095 and the “increase in dead-cell fraction” value ([3]; 0.01 µM) was -0.0073. For the same cell line, the “increase in dead-cell fraction” value ([3]; 0.03162 µM) was -0.0136, the “increase in dead-cell fraction” value ([3]; 0.1 µM) was -0.0173 and the “increase in dead-cell fraction” value ([3]; 0.3162 µM) was -0.0161. The “increase in dead-cell fraction” value ([3]; 1 µM) was 0.0209, the “increase in dead-cell fraction” value ([3]; 3.162 µM) was 0.211 and the “increase in dead-cell fraction” value ([3]; 10 µM) was 0.266. The “increase in dead-cell fraction” value ([4]; 0.0003162 µM) was 0.0002, the “increase in dead-cell fraction” value ([4]; 0.001 µM) was 0.0074 and the “increase in dead-cell fraction” value ([4]; 0.003162 µM) was -0.0015. The “increase in dead-cell fraction” value ([4]; 0.01 µM) was -0.0049, the “increase in dead-cell fraction” value ([4]; 0.03162 µM) was -0.0041 and the “increase in dead-cell fraction” value ([4]; 0.1 µM) was 0.0052. The “increase in dead-cell fraction” value ([4]; 0.3162 µM) was -0.004, the “increase in dead-cell fraction” value ([4]; 1 µM) was -0.0071 and the “increase in dead-cell fraction” value ([4]; 3.162 µM) was -0.006. For the same cell line, the “increase in dead-cell fraction” value (THZ1; 0.0001 µM) was -0.0023, the “increase in dead-cell fraction” value (THZ1; 0.0003162 µM) was -0.0015 and the “increase in dead-cell fraction” value (THZ1; 0.001 µM) was 0.0049. The “increase in dead-cell fraction” value (THZ1; 0.003162 µM) was 0.0027, the “increase in dead-cell fraction” value (THZ1; 0.01 µM) was 0.0075 and the “increase in dead-cell fraction” value (THZ1; 0.03162 µM) was 0.0208. The “increase in dead-cell fraction” value (THZ1; 0.1 µM) was 0.053, the “increase in dead-cell fraction” value (THZ1; 0.3162 µM) was 0.123 and the “increase in dead-cell fraction” value (THZ1; 1 µM) was 0.402. The “increase in dead-cell fraction” value (Neratinib/HKI272; 0.0003162 µM) was -0.0016, the “increase in dead-cell fraction” value (Neratinib/HKI272; 0.001 µM) was 0.0027 and the “increase in dead-cell fraction” value (Neratinib/HKI272; 0.003162 µM) was 0.006. The “increase in dead-cell fraction” value (Neratinib/HKI272; 0.01 µM) was 0.0409, the “increase in dead-cell fraction” value (Neratinib/HKI272; 0.03162 µM) was 0.113 and the “increase in dead-cell fraction” value (Neratinib/HKI272; 0.1 µM) was 0.199. For the same cell line, the “increase in dead-cell fraction” value (Neratinib/HKI272; 0.3162 µM) was 0.29, the “increase in dead-cell fraction” value (Neratinib/HKI272; 1 µM) was 0.344 and the “increase in dead-cell fraction” value (Neratinib/HKI272; 3.162 µM) was 0.542. For the same cell line, the “GR50, 72 h” value (LEE011/Ribociclib [5]) was over 10 µM, the “GR50, 72 h” value (Doxorubicin) was 0.00552 µM and the “GR50, 72 h” value (Ceritinib/LDK378) was 0.74 µM. For the same cell line, the “GR50, 72 h” value [6] was over 10 µM, the “GR50, 72 h” value [7] was 0.00469 µM and the “GR50, 72 h” value (Pictilisib/GDC0941) was 0.647 µM.
